According to patent US20100298141A1, “SUBSTITUTED PYRIDINE N-OXIDE HERBICIDES” (E. I. DU PONT DE NEMOURS AND COMPANY, priority 2007, published 2010):

How the values were obtained:
[1] = system: duck salad; test: Test C flooded paddy test; assay type: in vivo, Heteranthera limosa; conditions: Flood
Method in brief: (§1)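 Under a constant 3 cm flood, test compounds went directly into the paddy water. Following 13 to 15 days of greenhouse growth, treated species and controls were compared by eye.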

[2] = system: rice; test: Test C flooded paddy test; assay type: in vivo, Oryza sativa; conditions: Flood
Method in brief: as §1

[3] = system: crabgrass; test: Test A pre-/postemergence greenhouse test; assay type: in vivo, Digitaria sanguinalis; conditions: for Plant response rating, Crabgrass, Large: 0 to 100 scale where 0 is no effect and 100 is complete control; for Crabgrass, Large plant response rating: 0 to 100 scale
Method in brief: (§2)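 Planting was into mixed loam soil and sand; preemergence treatment followed as a directed soil spray. Concurrently, emerged plants (one- to two-leaf, 2–10 cm) received postemergence applications of identically formulated compound (non-phytotoxic solvent, surfactant). After approximately ten days under greenhouse conditions, injury was judged by eye against untreated plants.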

[4] = system: wheat; test: Test A pre-/postemergence greenhouse test; assay type: in vivo, Triticum aestivum; conditions: for Plant response rating, Wheat: 0 to 100 scale where 0 is no effect and 100 is complete control; for Wheat plant response rating: 0 to 100 scale
Method in brief: as §2

[5] = system: corn; test: Test A pre-/postemergence greenhouse test; assay type: in vivo, Zea mays; conditions: for Plant response rating, Corn: 0 to 100 scale where 0 is no effect and 100 is complete control; for Corn plant response rating: 0 to 100 scale
Method in brief: as §2

[6] = system: redroot pigweed; test: Test A pre-/postemergence greenhouse test; assay type: in vivo, Amaranthus retroflexus; conditions: for Plant response rating, Pigweed: 0 to 100 scale where 0 is no effect and 100 is complete control; for Pigweed plant response rating: 0 to 100 scale
Method in brief: as §2

[7] = system: barnyardgrass; test: Test A pre-/postemergence greenhouse test; assay type: in vivo, Echinochloa crus-galli; conditions: for Plant response rating, Barnyardgrass: 0 to 100 scale where 0 is no effect and 100 is complete control; for Barnyardgrass plant response rating: 0 to 100 scale
Method in brief: as §2

[8] = system: barnyardgrass; test: Test C flooded paddy test; assay type: in vivo, Echinochloa crus-galli; conditions: Flood
Method in brief: as §1

[9] = system: morningglory; test: Test A pre-/postemergence greenhouse test; assay type: in vivo, Ipomoea spp.; conditions: for Plant response rating, Morningglory: 0 to 100 scale where 0 is no effect and 100 is complete control; for Morningglory plant response rating: 0 to 100 scale
Method in brief: as §2

[10] = system: umbrella sedge; test: Test C flooded paddy test; assay type: in vivo, Cyperus difformis; conditions: Flood
Method in brief: as §1

[11] = system: giant foxtail; test: Test A pre-/postemergence greenhouse test; assay type: in vivo, Setaria faberi; conditions: for Plant response rating, Foxtail, Giant: 0 to 100 scale where 0 is no effect and 100 is complete control; for Foxtail, Giant plant response rating: 0 to 100 scale
Method in brief: as §2

[12] = system: velvetleaf; test: Test A pre-/postemergence greenhouse test; assay type: in vivo, Abutilon theophrasti; conditions: for Plant response rating, Velvetleaf: 0 to 100 scale where 0 is no effect and 100 is complete control; for Velvetleaf plant response rating: 0 to 100 scale
Method in brief: as §2

[13] = 62 g ai/ha, scale 0 to 100 (0 no effect, 100 complete control)
[14] = 250 g ai/ha, scale 0 to 100, 0 no effect, 100 complete control, 13 to 15 days
[15] = Postemergence, 500 g ai/ha, 0 is no effect, 100 is complete control
[16] = Preemergence, 125 g ai/ha, 0 no effect, 100 complete control
[17] = Preemergence, 500 g ai/ha, 0 no effect, 100 complete control
[18] = 31 g ai/ha, scale 0 to 100 (0 no effect, 100 complete control)
[19] = 62 g ai/ha, scale 0 to 100, 0 no effect, 100 complete control, 13 to 15 days
[20] = 125 g ai/ha, scale 0 to 100, 0 no effect, 100 complete control, 13 to 15 days

CC(C)c1cc[n+]([O-])c([S+]([O-])Cc2c(C(F)(F)F)nn(C)c2OCC(F)(F)F)c1 (stereo not shown) [Compound 104]
Plant response rating, Ducksalad [1, 13]: 30 | Plant response rating, Ducksalad [1, 14]: 80 | Plant response rating, Rice [2, 13]: 10 | Plant response rating, Rice [2, 14]: 15 | Plant response rating, Crabgrass, Large ([3]; Postemergence, 125 g ai/ha): 40 | Crabgrass, Large plant response rating [3, 15]: 90 | Crabgrass, Large plant response rating [3, 16]: 80 | Crabgrass, Large plant response rating [3, 17]: 100 | Plant response rating, Wheat ([4]; Postemergence, 125 g ai/ha): 50 | Wheat plant response rating [4, 15]: 60 | Wheat plant response rating [4, 16]: 50 | Wheat plant response rating [4, 17]: 100 | Plant response rating, Corn ([5]; Postemergence, 125 g ai/ha): 50 | Corn plant response rating [5, 15]: 70 | Corn plant response rating [5, 16]: 40 | Corn plant response rating [5, 17]: 70 | Plant response rating, Pigweed ([6]; Postemergence, 125 g ai/ha): 50 | Pigweed plant response rating [6, 15]: 90 | Pigweed plant response rating [6, 16]: 90 | Pigweed plant response rating [6, 17]: 100 | Plant response rating, Barnyardgrass ([7]; Postemergence, 125 g ai/ha): 50 | Barnyardgrass plant response rating [7, 15]: 90 | Barnyardgrass plant response rating [7, 16]: 40 | Barnyardgrass plant response rating [7, 17]: 100 | Plant response rating, Barnyardgrass [8, 13]: 0 | Plant response rating, Barnyardgrass [8, 14]: 20 | Plant response rating, Morningglory ([9]; Postemergence, 125 g ai/ha): 30 | Morningglory plant response rating [9, 15]: 100 | Morningglory plant response rating [9, 16]: 50 | Morningglory plant response rating [9, 17]: 100 | Plant response rating, Sedge, Umbrella [10, 13]: 0 | Plant response rating, Sedge, Umbrella [10, 14]: 80 | Plant response rating, Foxtail, Giant ([11]; Postemergence, 125 g ai/ha): 80 | Foxtail, Giant plant response rating [11, 15]: 90 | Foxtail, Giant plant response rating [11, 16]: 90 | Foxtail, Giant plant response rating [11, 17]: 100 | Plant response rating, Velvetleaf ([12]; Postemergence, 125 g ai/ha): 50 | Velvetleaf plant response rating [12, 15]: 70 | Velvetleaf plant response rating [12, 16]: 40 | Velvetleaf plant response rating [12, 17]: 80

Cn1nc(C(F)(F)F)c(CS(=O)(=O)c2ccc(F)c[n+]2[O-])c1Cl [Compound 53]
Plant response rating, Ducksalad [1, 18]: 20 | Plant response rating, Ducksalad [1, 19]: 60 | Plant response rating, Ducksalad [1, 20]: 100 | Plant response rating, Ducksalad [1, 14]: 100 | Plant response rating, Rice [2, 18]: 0 | Plant response rating, Rice [2, 19]: 25 | Plant response rating, Rice [2, 20]: 60 | Plant response rating, Rice [2, 14]: 75 | Plant response rating, Crabgrass, Large ([3]; Postemergence, 125 g ai/ha): 40 | Crabgrass, Large plant response rating [3, 15]: 80 | Crabgrass, Large plant response rating [3, 16]: 60 | Plant response rating, Crabgrass, Large ([3]; Preemergence, 500 g ai/ha): 90 | Plant response rating, Wheat ([4]; Postemergence, 125 g ai/ha): 0 | Wheat plant response rating [4, 15]: 0 | Wheat plant response rating [4, 16]: 0 | Plant response rating, Wheat ([4]; Preemergence, 500 g ai/ha): 0 | Plant response rating, Corn ([5]; Postemergence, 125 g ai/ha): 0 | Corn plant response rating [5, 15]: 0 | Corn plant response rating [5, 16]: 0 | Plant response rating, Corn ([5]; Preemergence, 500 g ai/ha): 0 | Plant response rating, Pigweed ([6]; Postemergence, 125 g ai/ha): 20 | Pigweed plant response rating [6, 15]: 50 | Pigweed plant response rating [6, 16]: 100 | Plant response rating, Pigweed ([6]; Preemergence, 500 g ai/ha): 100 | Plant response rating, Barnyardgrass ([7]; Postemergence, 125 g ai/ha): 60 | Barnyardgrass plant response rating [7, 15]: 80 | Barnyardgrass plant response rating [7, 16]: 50 | Plant response rating, Barnyardgrass ([7]; Preemergence, 500 g ai/ha): 80 | Plant response rating, Barnyardgrass [8, 18]: 0 | Plant response rating, Barnyardgrass [8, 19]: 0 | Plant response rating, Barnyardgrass [8, 20]: 60 | Plant response rating, Barnyardgrass [8, 14]: 80 | Plant response rating, Morningglory ([9]; Postemergence, 125 g ai/ha): 20 | Morningglory plant response rating [9, 15]: 30 | Morningglory plant response rating [9, 16]: 30 | Plant response rating, Morningglory ([9]; Preemergence, 500 g ai/ha): 70 | Plant response rating, Sedge, Umbrella [10, 18]: 20 | Plant response rating, Sedge, Umbrella [10, 20]: 80 | Plant response rating, Sedge, Umbrella [10, 14]: 90 | Plant response rating, Foxtail, Giant ([11]; Postemergence, 125 g ai/ha): 80 | Foxtail, Giant plant response rating [11, 15]: 90 | Foxtail, Giant plant response rating [11, 16]: 60 | Plant response rating, Foxtail, Giant ([11]; Preemergence, 500 g ai/ha): 80 | Plant response rating, Velvetleaf ([12]; Postemergence, 125 g ai/ha): 0 | Velvetleaf plant response rating [12, 15]: 0 | Velvetleaf plant response rating [12, 16]: 0 | Plant response rating, Velvetleaf ([12]; Preemergence, 500 g ai/ha): 0

Cc1cc[n+]([O-])c(S(=O)(=O)C(Cl)c2c(C(F)(F)F)nn(CC(F)(F)F)c2Cl)c1 (stereo not shown) [Compound 56]
Plant response rating, Ducksalad [1, 18]: 0 | Plant response rating, Ducksalad [1, 19]: 40 | Plant response rating, Ducksalad [1, 20]: 85 | Plant response rating, Ducksalad [1, 14]: 100 | Plant response rating, Rice [2, 18]: 0 | Plant response rating, Rice [2, 19]: 0 | Plant response rating, Rice [2, 20]: 0 | Plant response rating, Rice [2, 14]: 0 | Plant response rating, Crabgrass, Large ([3]; Postemergence, 125 g ai/ha): 0 | Crabgrass, Large plant response rating [3, 15]: 50 | Crabgrass, Large plant response rating [3, 16]: 20 | Plant response rating, Crabgrass, Large ([3]; Preemergence, 500 g ai/ha): 80 | Plant response rating, Wheat ([4]; Postemergence, 125 g ai/ha): 0 | Wheat plant response rating [4, 15]: 0 | Wheat plant response rating [4, 16]: 0 | Plant response rating, Wheat ([4]; Preemergence, 500 g ai/ha): 0 | Plant response rating, Corn ([5]; Postemergence, 125 g ai/ha): 0 | Corn plant response rating [5, 15]: 0 | Corn plant response rating [5, 16]: 0 | Plant response rating, Corn ([5]; Preemergence, 500 g ai/ha): 0 | Plant response rating, Pigweed ([6]; Postemergence, 125 g ai/ha): 0 | Pigweed plant response rating [6, 15]: 20 | Plant response rating, Pigweed ([6]; Preemergence, 500 g ai/ha): 100 | Plant response rating, Barnyardgrass ([7]; Postemergence, 125 g ai/ha): 0 | Barnyardgrass plant response rating [7, 15]: 50 | Barnyardgrass plant response rating [7, 16]: 0 | Plant response rating, Barnyardgrass ([7]; Preemergence, 500 g ai/ha): 70 | Plant response rating, Barnyardgrass [8, 18]: 0 | Plant response rating, Barnyardgrass [8, 19]: 0 | Plant response rating, Barnyardgrass [8, 20]: 0 | Plant response rating, Barnyardgrass [8, 14]: 20 | Plant response rating, Morningglory ([9]; Postemergence, 125 g ai/ha): 0 | Morningglory plant response rating [9, 15]: 10 | Morningglory plant response rating [9, 16]: 0 | Plant response rating, Morningglory ([9]; Preemergence, 500 g ai/ha): 0 | Plant response rating, Sedge, Umbrella [10, 18]: 0 | Plant response rating, Sedge, Umbrella [10, 20]: 45 | Plant response rating, Sedge, Umbrella [10, 14]: 55 | Plant response rating, Foxtail, Giant ([11]; Postemergence, 125 g ai/ha): 0 | Foxtail, Giant plant response rating [11, 15]: 50 | Foxtail, Giant plant response rating [11, 16]: 30 | Plant response rating, Foxtail, Giant ([11]; Preemergence, 500 g ai/ha): 90 | Plant response rating, Velvetleaf ([12]; Postemergence, 125 g ai/ha): 0 | Velvetleaf plant response rating [12, 15]: 0 | Velvetleaf plant response rating [12, 16]: 0 | Plant response rating, Velvetleaf ([12]; Preemergence, 500 g ai/ha): 40
